Laboratory results taken from patent publication US9090651B2, “Helix 12 directed pharmaceutical products” (ENDORECHERCHE, INC., priority 2004, dated 2015).
Several values for one entry are separate records, joined by “and”; a condition that tells them apart may be missing. Equal values may be shown once. Read-outs that look alike come from different tables or passages of the source.

Assays:
[1] = system: Shionogi mouse mammary carcinoma cells; assay: Androgenic/antiandrogenic activity on DHT-stimulated Shionogi cell growth; type: cell-based; settings: for Shionogi VS OH-FLU: ratio of Ki hydroxyflutamide versus tested compound
Human Androgen Receptor = target: T1, Human Androgen Receptor (Homo sapiens, UniProt P10275); assay: Androgen receptor binding assay (hydroxylapatite, [3H]R1881, cytosol of transfected HEK-293 cells); settings: for Androgen Receptor Binding (%) Human RBA R1881 = 100: % RBA=100×IC50 R1881/IC50 compound, transfected cells; for RBA human: Table 4, relative to R1881
T1 sequence (P10275 1-920): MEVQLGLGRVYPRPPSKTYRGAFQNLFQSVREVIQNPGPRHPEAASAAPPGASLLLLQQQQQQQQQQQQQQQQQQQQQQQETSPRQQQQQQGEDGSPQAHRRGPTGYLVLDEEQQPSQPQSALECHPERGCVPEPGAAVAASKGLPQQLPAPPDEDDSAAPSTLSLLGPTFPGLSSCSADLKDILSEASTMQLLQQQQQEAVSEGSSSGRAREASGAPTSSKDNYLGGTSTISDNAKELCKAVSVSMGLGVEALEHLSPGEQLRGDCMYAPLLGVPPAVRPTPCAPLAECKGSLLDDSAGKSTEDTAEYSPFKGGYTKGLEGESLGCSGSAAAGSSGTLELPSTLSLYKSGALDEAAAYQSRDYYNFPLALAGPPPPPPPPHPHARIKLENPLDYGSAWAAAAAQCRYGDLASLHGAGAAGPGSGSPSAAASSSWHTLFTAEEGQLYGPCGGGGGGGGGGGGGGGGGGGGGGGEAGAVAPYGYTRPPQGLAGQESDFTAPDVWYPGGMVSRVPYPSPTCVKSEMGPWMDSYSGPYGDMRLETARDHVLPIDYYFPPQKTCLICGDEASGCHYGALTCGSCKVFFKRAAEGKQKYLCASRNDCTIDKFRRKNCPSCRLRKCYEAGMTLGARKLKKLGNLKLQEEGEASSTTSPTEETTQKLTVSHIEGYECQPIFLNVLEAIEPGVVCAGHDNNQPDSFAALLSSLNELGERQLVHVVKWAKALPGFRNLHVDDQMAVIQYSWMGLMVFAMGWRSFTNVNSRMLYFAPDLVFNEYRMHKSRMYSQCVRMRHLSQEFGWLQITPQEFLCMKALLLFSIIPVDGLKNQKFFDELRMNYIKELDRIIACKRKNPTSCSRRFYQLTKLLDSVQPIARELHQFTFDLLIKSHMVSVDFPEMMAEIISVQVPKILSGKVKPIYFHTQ

rat prostate = assay: Systemic antiandrogenic activity, orchidectomized immature male rats with DHT implant: prostate weight; type: in vivo; settings: for inhibition in vivo at 0.5 mg: Rattus norvegicus, 168 h
Method: (§1) Immature male rats (Crl:CD(SD)Br) 22 to 24-day old were obtained from Charles-River, Inc. (St-Constant, Quebec, Canada) and housed up to 5 per cage in plastic bins in a temperature (23±1° C.)- and light (12 h light/day, lights on at 7 h15)-controlled environment. The rats were fed rodent chow and tap water ad libitum. The day following their arrival, the animals were orchidectomized (CX) under Isoflurane anesthesia via scrotal route and randomly assigned to groups of 5 animals.
(§2) Compounds were solubilized (when possible) in dimethylsulfoxide (DMSO, 10% final concentration) and administered as suspension in 0.4% methylcellulose. […] One group of animals received the antiandrogen Flutamide as reference. The animals were killed by cervical dislocation under isoflurane anesthesia on the 8th morning following castration. The ventral prostate and seminal vesicles were rapidly dissected and weighed.
(§3) W is the weight of the prostate or the seminal vesicle.

rat seminal vesicle = assay: Systemic antiandrogenic activity, orchidectomized immature male rats with DHT implant: seminal vesicle weight; type: in vivo; settings: for inhibition in vivo at 0.5 mg: Rattus norvegicus, 168 h
Method: as §1, §2, §3

[2] = system: sebaceous glands of the left ear; assay: Topical antiandrogenic activity, ear sebaceous glands model in the male hamster; type: in vivo; settings: Mesocricetus auratus, 336 h, topical on left pinna, read-out: Antiandrogenic activity in Hamster Ear Area Inh Vs Cx (%); for inhibition in vivo at 0.01 mg: 10 μg daily for 14 days; for inhibition in vivo at 0.1 mg: 100 μg daily for 14 days
Method: The antiandrogenic activity of compounds for topical use was determined using the ear sebaceous glands model in the male hamster.
Male Golden Syrian Hamsters (SYR) of 110-120 g were obtained from Harlan Sprague-Dawley (Madison, USA) and housed up to 2 per plastic cage in a temperature (22±3° C.) and light (12 h light/day, lights on at 7 h15)-controlled environment. The hamsters were fed with Certified Rodent Diet 5002 (pellet) and had access to tap water ad libitum. The animals were acclimatized for at least five days prior to beginning the study. Animals were randomly assigned to groups of eight hamsters. One group of hamsters were castrated under isoflurane-induced anesthesia on the day of dosing initiation (SD 1) and used as control group.
To evaluate the antiandrogenic activity, the tested compounds were applied topically on the inner part of the left ear, once daily, for 14 days. […] For animals of the castrated and intact control groups, one ten-μL vehicle was applied onto the left ear. No solution was applied on the right ear.
On Study Day 15, the hamsters were euthanized by cervical dislocation under isoflurane anesthesia. The left and right ears were collected attached together by the head skin, flat fixed on a paper and then immersed in 10% neutral buffered formalin. Punctures making a circular hole of 6 mm were made on the flat fixed ear in the region where the solution has been applied. These punch-made specimens were collected from each ear. Using a scalpel blade, the collected 6 mm round ear specimens were cut in the middle between the two cartilage ridges. The two equal parts of the ear round specimens were embedded in paraffin. After processing the tissue, the two parts were vertically embedded parallel to each other in such a way that the flat 6 mm area was facing out. From each paraffin block, one section (5 μm thick) was cut and collected on a glass slide. Thus, each slide contained two elongated sections of 6 mm length. Slides were stained with hematoxylin and eosin.
Using the video camera and the lens number X5 of the light microscope, the resulting field appearing on the screen has a length of 0.953 mm. When the first 6 mm long section was examined from the left to the right, the first and second fields were ignored and the third and fourth fields were captured for analysis by the image analyzer. Each field has the length of 0.953 mm. With the help of the screen mouse, the sebaceous glands within the whole field length (0.953 mm) were marked. Also, an area having the length of the whole field and the height between stratum granulosum and the upper edge of the cartilage was drawn.
The total area of the sebaceous glands (μm^2) in each examined field was calculated by the Image Analyser. We also measured the total area, which has the length of 0.953 mm and the height between stratum granulosum and the cartilage. In addition, the percentage of the area occupied by the glands was obtained. Thus, for each ear, two sections were cut and two fields from each section were analyzed. The total of the four readings was averaged and the mean standard error of the mean was calculated by the image analyzer. The results were expressed in μm^2 as the total surface of glands per field and also as percentage of the area occupied by the glands in the tissue.

[3] = Mus musculus, read-out: Shionogi Antiandrogenic activity IC50 (nM), inhibition of DHT-stimulated Shionogi cell number
[4] = po, 0.5 mg, per os, read-out: Prostate Rat Inh % inh (0.5 mg, per os)
[5] = po, 0.5 mg, per os, read-out: SV RAT Inh % inh (0.5 mg, per os)
[6] = Mus musculus, read-out: Shionogi IC50 (nM), Table 4, inhibition of DHT-stimulated Shionogi cell number

CCC(CC)N(C)C(CC)c1cccc(OCC[C@]23CCC4C5CCC(=O)C=C5CCC4C2CC[C@@H]3O)c1 (stereo partly shown) [EM-6680]
IC50 [1, 3]: 1.2 nM | Androgen Receptor Binding (%) Human RBA R1881 = 100 (Human Androgen Receptor): 140% | RBA human (Human Androgen Receptor): 140% | inhibition in vivo at 0.5 mg (rat prostate; [4]): 0% | inhibition in vivo at 0.5 mg (rat prostate; sc, read-out: IN VIVO Rat s.c. (+DHT) Prostate % inhibition, s.c., 0.5 mg/animal once daily for 7 days, +DHT): 0% | IN VIVO Rat (+DHT) Prostate % inhibition (per os) (rat prostate; per os, +DHT): 0 (p.o.) % | Prostate Rat Inh % inh, s.c. (rat prostate; s.c.): 0 s.c. 0% | inhibition in vivo at 0.5 mg (rat seminal vesicle; [5]): 21% | inhibition in vivo at 0.5 mg (rat seminal vesicle; sc, read-out: IN VIVO Rat s.c. (+DHT) SV % inhibition, s.c., 0.5 mg/animal once daily for 7 days, +DHT): 40% | IN VIVO Rat (+DHT) SV % inhibition (per os) (rat seminal vesicle; per os, +DHT): 21% | SV RAT Inh % inh, s.c. (rat seminal vesicle; s.c.): 40% | inhibition in vivo at 0.01 mg [2]: 64.7%

CC(C)CNC(C)(C)c1cccc(OCC[C@]23CCC4C(CCC5CC(=O)CC[C@@]54C)C2CCC3=O)c1 (stereo partly shown) [EM-6741]
IC50 [1, 6]: 0.6 nM | Shionogi VS OH-FLU ([1]; Table 4): 153 | RBA human (Human Androgen Receptor): 230% | inhibition in vivo at 0.01 mg [2]: 51.7%

CCN(C1CCCCC1)[C@H](C)c1cccc(OCC[C@]23CCC4C(CCC5CC(=O)CC[C@@]54C)C2CC[C@@H]3O)c1 (stereo partly shown) [EM-6414]
IC50 [1, 3]: 4 nM | IC50 [1, 6]: 4 nM | Shionogi VS OH-FLU ([1]; Table 4): 1 | Androgen Receptor Binding (%) Human RBA R1881 = 100 (Human Androgen Receptor): 121% | RBA human (Human Androgen Receptor): 71% | inhibition in vivo at 0.5 mg (rat prostate; [4]): 6% | inhibition in vivo at 0.5 mg (rat seminal vesicle; [5]): 28% | inhibition in vivo at 0.01 mg [2]: 55% | inhibition in vivo at 0.1 mg [2]: 64%

CC(C)CN1CCCCC1c1cccc(OCC[C@]23CCC4C(CCC5CC(=O)CC[C@@]54C)C2CC[C@@H]3O)c1 (stereo partly shown) [EM-6493]
IC50 [1, 3]: 4.3 nM | IC50 [1, 6]: 3.6 nM | Shionogi VS OH-FLU ([1]; Table 4): 16 | Androgen Receptor Binding (%) Human RBA R1881 = 100 (Human Androgen Receptor): 92% and 173% | RBA human (Human Androgen Receptor): 173% | inhibition in vivo at 0.5 mg (rat prostate; [4]): 15% | inhibition in vivo at 0.5 mg (rat seminal vesicle; [5]): 19% | inhibition in vivo at 0.01 mg [2]: 44% | inhibition in vivo at 0.1 mg [2]: 63%

CCC(NC1CCCC1)c1cccc(OCC[C@]23CCC4C(CCC5CC(=O)CC[C@@]54C)C2CC[C@@H]3OC)c1 (stereo partly shown) [EM-6640]
IC50 [1, 6]: 18 nM | Shionogi VS OH-FLU ([1]; Table 4): 5.3 | RBA human (Human Androgen Receptor): 438% | inhibition in vivo at 0.5 mg (rat prostate; [4]): 10% | inhibition in vivo at 0.5 mg (rat seminal vesicle; [5]): 0% | inhibition in vivo at 0.01 mg [2]: 46.3%

CC[C@H](NC1CCCCC1)c1cccc(OCC[C@]23CCC4C(CCC5CC(=O)CC[C@@]54C)C2CC[C@@H]3O)c1 (stereo partly shown) [EM-6415]
IC50 [1, 3]: 0.47 nM | IC50 [1, 6]: 1.4 nM | Shionogi VS OH-FLU ([1]; Table 4): 29 | Androgen Receptor Binding (%) Human RBA R1881 = 100 (Human Androgen Receptor): 230% | RBA human (Human Androgen Receptor): 185% | inhibition in vivo at 0.5 mg (rat prostate; [4]): 14% | inhibition in vivo at 0.5 mg (rat seminal vesicle; [5]): 0% | inhibition in vivo at 0.01 mg [2]: 52% | inhibition in vivo at 0.1 mg [2]: 84%

CCC[C@H](NC(CC)CC)c1cccc(OCC[C@]23CCC4C(CCC5CC(=O)CC[C@@]54C)C2CC[C@@H]3O)c1 (stereo in doubt) [EM-6445]
IC50 [1, 3]: 0.2 nM | IC50 [1, 6]: 0.2 nM | Shionogi VS OH-FLU ([1]; Table 4): 231 | Androgen Receptor Binding (%) Human RBA R1881 = 100 (Human Androgen Receptor): 168% | RBA human (Human Androgen Receptor): 336% | inhibition in vivo at 0.5 mg (rat prostate; [4]): 3% | inhibition in vivo at 0.5 mg (rat seminal vesicle; [5]): 0% | inhibition in vivo at 0.1 mg [2]: 96%

CCC(CC)NC(c1cccc(OCC[C@]23CCC4C(CCC5CC(=O)CC[C@@]54C)C2CC[C@@H]3O)c1)C(C)C (stereo partly shown) [EM-6446]
IC50 [1, 6]: 1 nM | Shionogi VS OH-FLU ([1]; Table 4): 51 | RBA human (Human Androgen Receptor): 715% | inhibition in vivo at 0.5 mg (rat prostate; [4]): 11% | inhibition in vivo at 0.5 mg (rat seminal vesicle; [5]): 3% | inhibition in vivo at 0.01 mg [2]: 56% | inhibition in vivo at 0.1 mg [2]: 79%

CCC(CC)NC(CC)c1cccc(OCC[C@]23CCC4C(CCC5CC(=O)CC[C@@]54C)C2CC[C@@H]3O)c1 (stereo partly shown) [EM-6339]
IC50 [1, 3]: 2.3 nM | IC50 [1, 6]: 2.3 nM | IC50 ([1]; read-out: Shionogi Antiandrogenic activity IC50, inhibition of DHT-stimulated Shionogi cell number): 3 nM | IC50 ([1]; read-out: Shionogi IC50, Table 4, inhibition of DHT-stimulated Shionogi cell number): 3 nM | Androgen Receptor Binding (%) Human RBA R1881 = 100 (Human Androgen Receptor): 240% and 236% | RBA human (Human Androgen Receptor): 236% | inhibition in vivo at 0.01 mg [2]: 55% | inhibition in vivo at 0.1 mg [2]: 67%

CCC[C@H](NC1CCCCC1)c1cccc(OCC[C@]23CCC4C(CCC5CC(=O)CC[C@@]54C)C2CCC3=O)c1 (stereo partly shown) [EM-6736]
IC50 [1, 6]: 1.8 nM | Shionogi VS OH-FLU ([1]; Table 4): 43 | RBA human (Human Androgen Receptor): 154% | inhibition in vivo at 0.01 mg [2]: 49.5%
